# Patent publication US9597407B2, “Targeted antimicrobial moieties” (C3 Jian, Inc., priority 2009, dated 2017)
# “Also recorded” adds a separate entry of the source.
# Tests used:
# [1] = tested on: microorganisms; assay: Peptide activities: binding, antimicrobial, growth or phenotype altering (Table 8)
# Description: In certain embodiments, peptides described herein can have multiple activities. Thus for example, a peptide can have both binding/targeting activity and antimicrobial activity. Such peptides can be used, e.g., in a chimeric construct, for any or all of these properties. Thus, for example, a peptide designated “B” in Table 8 can be used as a targeting peptide. If it is also designated G or M it can also be used for antimicrobial activity.
# [2] = tested on: bacteria; assay: Binding of targeting peptides to microorganisms (Table 3); conditions: preferably 1x PBS
# [3] = tested on: microorganisms; assay: Morphology, biofilm and growth disruption by peptides (Table 5); type: cell-based; set-up: key: A: Peptide aggregates; B: Less hyphal formation; Clumps; Diffuse clumps and small polyps; F: Diffuse growth; H: Thin; I: Growth inhibition; Microcolony formation; Rippled; Small polyps; Thick; W: Halo formation on top, microlonies on bottom
# Description: In certain embodiments peptides that induce alterations in phenotype or other biological activities can also be used as antimicrobial effector moieties.
# [4] = microorganism the targeting peptide binds, binding in aqueous buffers that varied with peptide solubility
# [5] = microorganism bound by the targeting peptide, binding in aqueous buffers chosen by peptide solubility
Substance,Activities [1],"Target(s) [2, 4]","Organism, effect ([3]; MRSA)","Organism, effect ([3]; B. subtilis)","Organism, effect ([3]; C. jejuni)","Organism, effect ([3]; S. epidermidis)","Organism, effect ([3]; S. pneumoniae)","Target(s) [2, 5]","Organism, effect ([3]; C. jeikeium)","Organism, effect ([3]; M. luteus)","Organism, effect ([3]; E. coli)"
PF-058 (FADQSQDNA; Peptide with targeting and/or antimicrobial activity),G B,S. epidermidis and M. luteus and E. coli and C. albicans and MRSA and C. jeikeium and C. jejuni,MRSA (M),,,,,,,,
PF-061 (GYNSYKAVQDVKTHSEEQRVTAKK; Peptide with targeting and/or antimicrobial activity),G B,S. epidermidis; also recorded: S. pneumoniae,,B. subtilis (R),C. jejuni (R),S. epidermidis (R),S. pneumoniae (R),,,,
PF-064 (DYYGKE; Peptide with targeting and/or antimicrobial activity),G B,E. coli,MRSA (M),,,S. epidermidis (D),,,,,
PF-066 (IKGTVKAVDETTVVITVNGHGTELTFEKPAIKQVDPS; Peptide with targeting and/or antimicrobial activity),G B,M. luteus; also recorded: E. coli; also recorded: C. jeikeium,MRSA (S),,,,,,,,
PF-073 (CPSVTMDACALLQKFDFCNNISHFRHFFAIKQPIER; Peptide with targeting and/or antimicrobial activity),G B,,MRSA (M),,C. jejuni (D),S. epidermidis (R),S. pneumoniae (D),S. epidermidis and M. luteus and P. aeruginosa and C. albicans and MRSA and S. pneumoniae and E. faecalis,C. jeikeium (D),M. luteus (R),
PF-127 (MLRYLSLFAVGLATGYAWGWIDGLAASLAV; Peptide with targeting and/or antimicrobial activity),G B,,,,,S. epidermidis (M),,S. epidermidis and M. luteus and E. coli and P. aeruginosa and C. albicans and MRSA and S. pneumoniae and E. faecalis,C. jeikeium (A),M. luteus (A),
PF-289 (MGRHLWNPSYFVATVSENTEEQIRKYRKNK; Peptide with targeting and/or antimicrobial activity),G B,,,B. subtilis (C),,,,C. difficile,,,
PF-360 (MEQKVKVIFVPRSKPDNQLKTFVSAVLFKA; Peptide with targeting and/or antimicrobial activity),G B,,MRSA (H),,,S. epidermidis (S),,S. epidermidis; also recorded: B. subtilis; also recorded: E. coli; also recorded: P. aeruginosa; also recorded: C. albicans; also recorded: E. faecalis; also recorded: C. jeikeium; also recorded: C. jejuni,,,E. coli (C)
PF-362 (NIERILKEKVWMIRCVE; Peptide with targeting and/or antimicrobial activity),G B,,MRSA (C),,,,,S. epidermidis; also recorded: E. coli; also recorded: P. aeruginosa; also recorded: C. albicans; also recorded: E. faecalis; also recorded: C. jejuni,,,E. coli (C)
